Measured values reported in patent US6472348B1, “Pyridone derivatives and herbicides” (Kumiai Chemical Industry Co., Ltd., priority 1996, dated 2002).

Experiments:
[1] = system: common lambsquarters (Ch); test: Test Example 9: crop plant selectivity by upland field foliage treatment (wheat), herbicidal effects; type: in vivo; parameters: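 grade of growth control; 5 = at least 90%; 4 = 70 to 90%; 3 = 50 to 70%; 2 = 30 to 50%; 1 = 10 to 30%; 0 = under 10%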; details: dose 1.6 g ai/10a, 14th day after treatment
How it was run: (§1)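 Sand-filled pot, wheat + weeds co-sown; greenhouse 2 wk, then foliage treatment; greenhouse culture continued; visual scoring of weed control and crop injury at 14 d post-treatment per grading scale.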

[2] = system: pale smartweed (Po); test: as above; type: in vivo; parameters: scale not given here; details: dose 1.6 g ai/10a, 14th day after treatment
How it was run: as §1

[3] = system: China jute (Ab); test: as above; type: in vivo; parameters: scale not given here; details: dose 1.6 g ai/10a, 14th day after treatment
How it was run: as §1

[4] = system: slender amaranth (Am); test: as above; type: in vivo; parameters: scale not given here; details: dose 1.6 g ai/10a, 14th day after treatment
How it was run: as §1

[5] = system: bulrush (Sc); test: Test Example 1: herbicidal effects by paddy field soil treatment; type: in vivo; details: 100 g of the active ingredient per 10 ares, 21st day after the application, index 0-5 of Table 47;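 note: grade of growth control; 5 = at least 90%; 4 = 70 to 90%; 3 = 50 to 70%; 2 = 30 to 50%; 1 = 10 to 30%; 0 = under 10%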
How it was run: (§2)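 Herbicidal effect was scored against a graded standard 21 days after treatment. Seeds were sown in puddled, leveled paddy soil flooded to 3 cm depth, and the active ingredient was applied at 100 g per 10 ares before greenhouse culture.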

[6] = system: barnyardgrass (Ec); test: as above; type: in vivo; details: 100 g of the active ingredient per 10 ares, 21st day after the application, index 0-5 of Table 47
How it was run: as §2

[7] = system: monochoria (Mo); test: as above; type: in vivo; details: 100 g of the active ingredient per 10 ares, 21st day after the application, index 0-5 of Table 47;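 note: grade of growth control; 5 = at least 90%; 4 = 70 to 90%; 3 = 50 to 70%; 2 = 30 to 50%; 1 = 10 to 30%; 0 = under 10%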
How it was run: as §2

[8] = system: common lambsquarters (Ch); test: Test Example 10: crop plant selectivity by upland field foliage treatment (soybean), herbicidal effects; type: in vivo; details: dose 1.6 g ai/10a, 14th day after treatment
Protocol: (§3) (Test on Crop Plant Selectivity by Upland Field Foliage Treatment)
(§4) In a plastic pot (surface area: 600 cm^2) filled with sand, soybean (Gl), pale smartweed (Po), slender amaranth (Am), common lambsquarters (Ch) and China jute (Ab) were sown and cultured in a green house for 2 weeks. […] The plants were then cultured in a green house, and the evaluation of the herbicidal effects and phytotoxicity was conducted on the 14th day after the treatment in accordance with the standards as identified in Table 47.

[9] = system: pale smartweed (Po); test: as above; type: in vivo; details: dose 1.6 g ai/10a, 14th day after treatment
Protocol: as §3, §4

[10] = system: China jute (Ab); test: as above; type: in vivo; details: dose 1.6 g ai/10a, 14th day after treatment
Protocol: as §3, §4

[11] = system: slender amaranth (Am); test: as above; type: in vivo; details: dose 1.6 g ai/10a, 14th day after treatment
Protocol: as §3, §4

[12] = system: Diaitaria ciliaris (Di); test: Test Example 3: herbicidal effects by upland field foliage treatment; type: in vivo; parameters: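 grade of growth control; 5 = at least 90%; 4 = 70 to 90%; 3 = 50 to 70%; 2 = 30 to 50%; 1 = 10 to 30%; 0 = under 10%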
How it was run: (§5)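 Weeds were sown in sand-filled pots (surface area: 120 cm^2), covered with soil and grown in a greenhouse for 2 weeks before foliar treatment. Plants then stayed in the greenhouse, and herbicidal effect was scored against graded standards on the 14th day after treatment.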

[13] = system: common lambsquarters (Ch); test: as above; type: in vivo; parameters: scale not given here
How it was run: as §5

[14] = system: barnyardgrass (Ec); test: as above; type: in vivo; parameters: scale not given here
How it was run: as §5

[15] = system: pale smartweed (Po); test: as above; type: in vivo; parameters: scale not given here
How it was run: as §5

[16] = system: rice flatsedge (Ci); test: as above; type: in vivo; parameters: scale not given here
How it was run: as §5

[17] = system: slender amaranth (Am); test: as above; type: in vivo; parameters: scale not given here
How it was run: as §5

[18] = system: common lambsquarters (Ch); test: Test Example 11: crop plant selectivity by upland field foliage treatment (corn), herbicidal effects; type: in vivo; parameters: scale not given here; details: upland field foliage treatment (corn test), dose 1.6 g ai/10a, 14th day after treatment
How it was run: (§6)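 Corn with pale smartweed, slender amaranth, common lambsquarters and China jute sown in sand-filled pots and grown 2 weeks in a greenhouse before foliage treatment. Herbicidal effect and crop phytotoxicity scored on day 14 after treatment against a rating standard.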

[19] = system: pale smartweed (Po); test: as above; type: in vivo; parameters: scale not given here; details: upland field foliage treatment (corn test), dose 1.6 g ai/10a, 14th day after treatment
How it was run: as §6

[20] = system: China jute (Ab); test: as above; type: in vivo; parameters: scale not given here; details: upland field foliage treatment (corn test), dose 1.6 g ai/10a, 14th day after treatment
How it was run: as §6

[21] = system: slender amaranth (Am); test: as above; type: in vivo; parameters: scale not given here; details: upland field foliage treatment (corn test), dose 1.6 g ai/10a, 14th day after treatment
How it was run: as §6

[22] = system: common lambsquarters (Ch); test: Test Example 2: herbicidal effects by upland field soil treatment; type: in vivo; details: 100 g of the active ingredient per 10 ares;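 note: grade of growth control; 5 = at least 90%; 4 = 70 to 90%; 3 = 50 to 70%; 2 = 30 to 50%; 1 = 10 to 30%; 0 = under 10%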
Excerpt: (§7) (Test on Herbicidal Effects by Upland Field Soil Treatment)

[23] = system: barnyardgrass (Ec); test: as above; type: in vivo; details: 100 g of the active ingredient per 10 ares
Excerpt: as §7

[24] = system: pale smartweed (Po); test: as above; type: in vivo; details: 100 g of the active ingredient per 10 ares
Excerpt: as §7

[25] = system: rice flatsedge (Ci); test: as above; type: in vivo; details: 100 g of the active ingredient per 10 ares
Excerpt: as §7

[26] = system: slender amaranth (Am); test: as above; type: in vivo; details: 100 g of the active ingredient per 10 ares
Excerpt: as §7

[27] = system: Digitaria ciliaris (Di); test: as above; type: in vivo; details: 100 g of the active ingredient per 10 ares;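 note: grade of growth control; 5 = at least 90%; 4 = 70 to 90%; 3 = 50 to 70%; 2 = 30 to 50%; 1 = 10 to 30%; 0 = under 10%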
Excerpt: as §7

[28] = system: wheat (Tr); test: Test Example 9: crop plant selectivity by upland field foliage treatment (wheat), phytotoxicity; details: dose 1.6 g ai/10a, 14th day after treatment
How it was run: as §1

[29] = system: soybean (Gl); test: Test Example 10: crop plant selectivity by upland field foliage treatment (soybean), phytotoxicity; details: dose 1.6 g ai/10a, 14th day after treatment
Protocol: as §3, §4

[30] = system: corn (Ze); test: Test Example 11: crop plant selectivity by upland field foliage treatment (corn), phytotoxicity; details: upland field foliage treatment, dose 1.6 g ai/10a, 14th day after treatment
How it was run: as §6

[31] = system: Diaitaria ciliaris (Di); test: Test Example 4: crop plant selectivity by upland field soil treatment (cotton), herbicidal effects; type: in vivo; details: evaluated 21st day after application
Protocol: (Test on Crop Plant Selectivity by Upland Field Soil Treatment)
In a plastic pot (surface area: 600 cm^2) filled with sand, cotton (Go), Diaitaria ciliaris (Di), green foxtail (Se), pale smartweed (Po), slender amaranth (Am), common lambsquarters (Ch) and China jute (Ab) were sown and covered with soil. […] The plants were then cultured in a green house, and the evaluation of the herbicidal effects and phytotoxicity was conducted on the 21st day after the application in accordance with the standards as identified in Table 47. Symbol—represents “not tested”.

[32] = system: common lambsquarters (Ch); test: as above; type: in vivo; parameters: scale not given here; details: evaluated 21st day after application
How it was run: (§8)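 Seeds of cotton and several weed species were sown in sand-filled pots and covered with soil before soil treatment with the test compound. Plants were grown in a greenhouse, and herbicidal effect and crop phytotoxicity were scored against set standards 21 days after application.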

[33] = system: pale smartweed (Po); test: as above; type: in vivo; parameters: scale not given here; details: evaluated 21st day after application
How it was run: as §8

[34] = system: China jute (Ab); test: as above; type: in vivo; parameters: scale not given here; details: evaluated 21st day after application
How it was run: as §8

[35] = system: green foxtail (Se); test: as above; type: in vivo; parameters: scale not given here; details: dose 6.3 g ai/10 a, evaluated 21st day after application
How it was run: as §8

[36] = system: slender amaranth (Am); test: as above; type: in vivo; parameters: scale not given here; details: evaluated 21st day after application
How it was run: as §8

[37] = system: cotton (Go); test: Test Example 4: crop plant selectivity by upland field soil treatment (cotton), phytotoxicity; type: in vivo; parameters: scale not given here; details: evaluated 21st day after application
How it was run: as §8

[38] = 100 g of the active ingredient per 10 ares, evaluated on the 14th day after treatment
[39] = 21st day after the application, index 0-5 of Table 47
[40] = 100 g active ingredient per 10 ares, evaluated 14th day after treatment
[41] = evaluated on the 21st day after application

COCSc1cc(-c2ccc(C(F)(F)F)n(C)c2=O)c(Cl)cc1Cl [1-126]
Herbicidal effects Ch [1]: 5
Herbicidal effects Po [2]: 5
Herbicidal effects Ab [3]: 5
Herbicidal effects Am [4]: 5
Herbicidal effects Sc [5]: 5
Herbicidal effects Ec [6]: 5
Herbicidal effects Mo [7]: 5
Herbicidal effects Ch [8]: 5
Herbicidal effects Po [9]: 5
Herbicidal effects Ab [10]: 5
Herbicidal effects Am [11]: 5
Herbicidal effects Di [12, 38]: 5
Herbicidal effects Ch [13, 38]: 5
Herbicidal effects Ec [14, 38]: 5
Herbicidal effects Po [15, 38]: 5
Herbicidal effects Ci [16, 38]: 5
Herbicidal effects Am [17, 38]: 5
Herbicidal effects Ch [18]: 5
Herbicidal effects Po [19]: 5
Herbicidal effects Ab [20]: 5
Herbicidal effects Am [21]: 5
Herbicidal effects Ch [22, 39]: 5
Herbicidal effects Ec [23, 39]: 5
Herbicidal effects Po [24, 39]: 5
Herbicidal effects Ci [25, 39]: 5
Herbicidal effects Am [26, 39]: 5
Herbicidal effects Di [27, 39]: 5
Phytotoxicity Tr [28]: 2
Phytotoxicity Gl [29]: 2
Phytotoxicity Ze [30]: 2

CC(C)Oc1cc(-c2ccc(C(F)(F)F)n(C)c2=O)c(F)cc1Cl [Compound No. 1-14]
Herbicidal effects Di ([31]; dose 1.6 g ai/10 a): 5
Herbicidal effects Di ([31]; dose 6.3 g ai/10 a): 5
Herbicidal effects Sc [5]: 5
Herbicidal effects Ec [6]: 5
Herbicidal effects Mo [7]: 5
Herbicidal effects Ch ([32]; dose 1.6 g ai/10 a): 5
Herbicidal effects Ch ([32]; dose 6.3 g ai/10 a): 5
Herbicidal effects Po ([33]; dose 1.6 g ai/10 a): 5
Herbicidal effects Po ([33]; dose 6.3 g ai/10 a): 5
Herbicidal effects Ab ([34]; dose 1.6 g ai/10 a): 4
Herbicidal effects Ab ([34]; dose 6.3 g ai/10 a): 5
Herbicidal effects Se [35]: 5
Herbicidal effects Am ([36]; dose 1.6 g ai/10 a): 5
Herbicidal effects Am ([36]; dose 6.3 g ai/10 a): 5
Phytotoxicity Go ([37]; dose 1.6 g ai/10 a): 0
Phytotoxicity Go ([37]; dose 6.3 g ai/10 a): 0
Herbicidal effects Di [12, 38]: 5
Herbicidal effects Ch [13, 38]: 5
Herbicidal effects Ec [14, 38]: 5
Herbicidal effects Po [15, 38]: 5
Herbicidal effects Ci [16, 38]: 5
Herbicidal effects Am [17, 38]: 5
Herbicidal effects Ch [22, 39]: 5
Herbicidal effects Ec [23, 39]: 5
Herbicidal effects Po [24, 39]: 5
Herbicidal effects Ci [25, 39]: 5
Herbicidal effects Am [26, 39]: 5
Herbicidal effects Di [27, 39]: 5

Cn1c(C(F)(F)F)ccc(-c2cc(Oc3ccccc3)c(Cl)cc2F)c1=O [Compound No. 1-22]
Herbicidal effects Ch [1]: 5
Herbicidal effects Po [2]: 5
Herbicidal effects Ab [3]: 5
Herbicidal effects Am [4]: 5
Herbicidal effects Sc [5]: 5
Herbicidal effects Ec [6]: 5
Herbicidal effects Mo [7]: 5
Herbicidal effects Ch [8]: 5
Herbicidal effects Po [9]: 5
Herbicidal effects Ab [10]: 5
Herbicidal effects Am [11]: 5
Herbicidal effects Di [12, 38]: 5
Herbicidal effects Ch [13, 38]: 5
Herbicidal effects Ec [14, 38]: 5
Herbicidal effects Po [15, 38]: 5
Herbicidal effects Ci [16, 38]: 5
Herbicidal effects Am [17, 38]: 5
Herbicidal effects Ch [18]: 5
Herbicidal effects Po [19]: 5
Herbicidal effects Ab [20]: 5
Herbicidal effects Am [21]: 5
Phytotoxicity Tr [28]: 2
Phytotoxicity Gl [29]: 2
Phytotoxicity Ze [30]: 2

Cn1c(C(F)(F)F)ccc(-c2c(F)cc(Cl)c3oc(C(Br)Br)cc23)c1=O [Compound No. 4-27, 3-(7-chloro-2-dibromomethyl-5-fluorobenzofuran-4-yl)-1-methyl-6-trifluoromethyl-2-(1H)-pyridone]
melting point: 107 to 109 °C
Herbicidal effects Ch [1]: 5
Herbicidal effects Po [2]: 5
Herbicidal effects Ab [3]: 5
Herbicidal effects Am [4]: 5
Herbicidal effects Sc [5]: 5
Herbicidal effects Ec [6]: 5
Herbicidal effects Mo [7]: 5
Herbicidal effects Di [12, 40]: 5
Herbicidal effects Ch [13, 40]: 5
Herbicidal effects Ec [14, 40]: 4
Herbicidal effects Po [15, 40]: 5
Herbicidal effects Ci [16, 40]: 5
Herbicidal effects Am [17, 40]: 5
Herbicidal effects Ch [18]: 5
Herbicidal effects Po [19]: 5
Herbicidal effects Ab [20]: 5
Herbicidal effects Am [21]: 5
Herbicidal effects Ch [22, 41]: 5
Herbicidal effects Ec [23, 41]: 4
Herbicidal effects Po [24, 41]: 5
Herbicidal effects Ci [25, 41]: 5
Herbicidal effects Am [26, 41]: 5
Herbicidal effects Di [27, 41]: 5
Phytotoxicity Tr [28]: 2
Phytotoxicity Ze [30]: 2
